Assay results taken from patent US20260297080A1, “BICYCLIC COMPOUNDS AS CDK INHIBITORS” (BeOne Medicines I GmbH, priority 2022, published 2026).
pIC50: −log10 of the molar value.

Legend:
[1] = biological target: CDK2/Cyclin E1 (Homo sapiens, UniProt P24941); test: CDK2/Cyclin E1 Biochemical Assay (TR-FRET), 0.060 mM ATP; settings: 0.15 μM Rb (Ser780)-biotin substrate, pH7.0, 60 min preincubation, 120 min reaction, room temperature
In short: (§1)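 Percent inhibition was derived from the 665 nm/620 nm TR-FRET ratio after a 120-minute room-temperature reaction on 0.15 μM Rb (Ser780)-biotin, preceded by 60-minute enzyme–compound preincubation. IC50 came from four-parameter logistic fitting.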

[2] = biological target: CDK1/Cyclin B1 (Homo sapiens, UniProt P06493); test: CDK1/Cyclin B1 Biochemical Assay (TR-FRET), 0.015 mM ATP; settings: 0.15 μM Rb (Ser780)-biotin substrate, pH7.0, 60 min preincubation, 120 min reaction, room temperature
Sequence of CDK1/Cyclin B1 (P06493 whole entry): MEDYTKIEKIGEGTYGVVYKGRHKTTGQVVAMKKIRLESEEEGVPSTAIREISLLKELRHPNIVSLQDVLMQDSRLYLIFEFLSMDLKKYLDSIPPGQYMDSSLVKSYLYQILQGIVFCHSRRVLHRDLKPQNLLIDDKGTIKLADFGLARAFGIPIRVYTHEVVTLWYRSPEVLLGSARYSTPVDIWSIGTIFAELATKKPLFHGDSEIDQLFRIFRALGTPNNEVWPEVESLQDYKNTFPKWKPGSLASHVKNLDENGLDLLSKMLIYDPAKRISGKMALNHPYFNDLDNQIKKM
Sequence of CDK1/Cyclin B1 (P14635 whole entry partner): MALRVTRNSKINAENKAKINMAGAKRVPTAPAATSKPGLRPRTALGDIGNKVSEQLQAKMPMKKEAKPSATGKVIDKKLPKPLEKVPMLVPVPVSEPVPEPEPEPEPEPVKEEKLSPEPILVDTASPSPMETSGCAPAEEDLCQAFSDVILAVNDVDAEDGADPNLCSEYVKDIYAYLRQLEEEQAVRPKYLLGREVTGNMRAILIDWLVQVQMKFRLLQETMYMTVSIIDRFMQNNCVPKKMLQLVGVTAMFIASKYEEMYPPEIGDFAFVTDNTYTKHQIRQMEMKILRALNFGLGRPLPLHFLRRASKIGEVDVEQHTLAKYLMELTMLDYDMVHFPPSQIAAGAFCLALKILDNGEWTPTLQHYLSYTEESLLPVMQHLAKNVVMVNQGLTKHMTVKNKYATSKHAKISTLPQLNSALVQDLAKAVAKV
In short: as §1

SMILES | pIC50 [1] | pIC50 [2]
CC(C)NC(=O)O[C@H]1CC[C@@H](c2cc(Nc3ccc4c(c3F)CN(CCCO)S4(=O)=O)n[nH]2)C1 (relative stereo) [Example 113, cis-3-(3-((4-fluoro-2-(3-hydroxypropyl)-1,1-dioxido-2,3-dihydrobenzo[d]isothiazol-5-yl)amino)-1H-pyrazol-5-yl)cyclopentyl isopropylcarbamate] | 8.44 | 6.54
CC(C)NC(=O)O[C@H]1CC[C@@H](c2cc(Nc3ccc4c(c3)CS(=O)(=O)N4C(C)C3COC3)n[nH]2)C1 (relative stereo) [Example 208, cis-3-(3-((1-(1-(oxetan-3-yl)ethyl)-2,2-dioxido-1,3-dihydrobenzo[c]isothiazol-5-yl)amino)-1H-pyrazol-5-yl)cyclopentyl isopropylcarbamate] | 7.80 | 6.58
[2H]C([2H])([2H])C1c2cc(Nc3cc([C@@H]4CC[C@H](OC(=O)NCCC)C4)[nH]n3)cc(F)c2N(C([2H])([2H])[2H])S1(=O)=O (relative stereo) [Example 284, cis-3-(3-((7-fluoro-1,3-bis(methyl-d3)-2,2-dioxido-1,3-dihydrobenzo[c]isothiazol-5-yl)amino)-1H-pyrazol-5-yl)cyclopentyl propylcarbamate] | 8.08 | 7.21
CC1(NC(=O)O[C@H]2C[C@@H](c3cc(Nc4cc5c(cc4F)S(=O)(=O)NC5)n[nH]3)C2)CC1 [Example 411, (1s,3s)-3-(3-((6-fluoro-1,1-dioxido-2,3-dihydrobenzo[d]isothiazol-5-yl)amino)-1H-pyrazol-5-yl)cyclobutyl(1-methylcyclopropyl)carbamate] | 8.03 | 6.41
CC(C)NC(=O)OC1CC(c2cc(Nc3ccc4c(c3)CNS4(=O)=O)n[nH]2)C1 (stereo not drawn) [Example 173, 3-(3-((1,1-dioxido-2,3-dihydrobenzo[d]isothiazol-5-yl)amino)-1H-pyrazol-5-yl)cyclobutyl isopropylcarbamate] | 8.17 | 7.14
O=C(NC1CCCC1)O[C@H]1CC[C@@H](c2cc(Nc3ccc4c(c3F)CS(=O)(=O)N4)n[nH]2)C1 (single isomer, unassigned) [Example 400b] | 8.47 | 7.19
CC(C)NC(=O)O[C@H]1CC[C@@H](c2cc(Nc3ccc4c(c3F)CS(=O)(=O)N4CCO)n[nH]2)C1 (single isomer, unassigned) [Example 271b, cis-3-(3-((4-fluoro-1-(2-hydroxyethyl)-2,2-dioxido-1,3-dihydrobenzo[c]isothiazol-5-yl)amino)-1H-pyrazol-5-yl)cyclopentyl isopropylcarbamate] | 8.74 | 7.31
CC(C)NC(=O)O[C@H]1CC[C@@H](c2cc(Nc3ccc4c(c3F)S(=O)(=O)N(CCO)C4)n[nH]2)C1 (relative stereo) [Example 192, cis-3-(3-((7-fluoro-2-(2-hydroxyethyl)-1,1-dioxido-2,3-dihydrobenzo[d]isothiazol-6-yl)amino)-1H-pyrazol-5-yl)cyclopentyl isopropylcarbamate] | 8.22 | 6.94
CC(C)NC(=O)O[C@H]1CC[C@@H](c2cc(Nc3ccc4c(c3)CCS(=O)(=O)N4C)n[nH]2)C1 (relative stereo) [Example 250, cis-3-(3-((1-methyl-2,2-dioxido-3,4-dihydro-1H-benzo[c][1,2]thiazin-6-yl)amino)-1H-pyrazol-5-yl)cyclopentyl isopropylcarbamate] | 8.68 | 7.52
CC1NS(=O)(=O)c2ccc(Nc3cc([C@@H]4CC[C@H](OC(=O)NC5(C)CC5)C4)[nH]n3)cc21 (single isomer, unassigned) [Example 322c, cis-3-(3-((3-methyl-1,1-dioxido-2,3-dihydrobenzo[d]isothiazol-5-yl)amino)-1H-pyrazol-5-yl)cyclopentyl(1-methylcyclopropyl)carbamate] | 8.89 | 7.54
[2H]C([2H])([2H])N1Cc2c(ccc(Nc3cc([C@@H]4CC[C@H](OC(=O)NC5(C)CC5)C4)[nH]n3)c2F)S1(=O)=O (single isomer, unassigned) [Example 132a, cis-3-(3-((4-fluoro-2-(methyl-d3)-1,1-dioxido-2,3-dihydrobenzo[d]isothiazol-5-yl)amino)-1H-pyrazol-5-yl)cyclopentyl(1-methylcyclopropyl)carbamate] | 8.66 | 6.69
CCCNC(=O)O[C@H]1CC[C@@H](c2cc(Nc3ccc4c(c3F)S(=O)(=O)NC4)n[nH]2)C1 (single isomer, unassigned) [Example 189a, cis-3-(3-((7-fluoro-1,1-dioxido-2,3-dihydrobenzo[d]isothiazol-6-yl)amino)-1H-pyrazol-5-yl)cyclopentyl propylcarbamate] | 8.00 | 6.46
CC(C)NC(=O)O[C@H]1CC[C@@H](c2cc(Nc3cc4c(cc3F)N(C)S(=O)(=O)C4)n[nH]2)C1 (relative stereo) [Example 300, cis-3-(3-((6-fluoro-1-methyl-2,2-dioxido-1,3-dihydrobenzo[c]isothiazol-5-yl)amino)-1H-pyrazol-5-yl)cyclopentyl isopropylcarbamate] | 7.44 | 6.29
CC1(NC(=O)O[C@H]2CC[C@@H](c3cc(Nc4ccc5c(c4)CNS5(=O)=O)n[nH]3)C2)CC1 (relative stereo) [Example 177, cis-3-(3-((1,1-dioxido-2,3-dihydrobenzo[d]isothiazol-5-yl)amino)-1H-pyrazol-5-yl)cyclopentyl(1-methylcyclopropyl)carbamate] | 8.96 | 7.57
Cc1c(Nc2cc([C@@H]3CC[C@H](OC(=O)NC(C)C)C3)[nH]n2)ccc2c1CN(C)S2(=O)=O (relative stereo) [Example 35, cis-3-(3-((2,4-dimethyl-1,1-dioxido-2,3-dihydrobenzo[d]isothiazol-5-yl)amino)-1H-pyrazol-5-yl)cyclopentyl isopropylcarbamate] | 8.05 | 6.53
CC(C)NC(=O)O[C@H]1CC[C@@H](c2cc(Nc3ccc4c(c3F)CN(C3CN(C)C3)S4(=O)=O)n[nH]2)C1 (relative stereo) [Example 91, cis-3-(3-((4-fluoro-2-(1-methylazetidin-3-yl)-1,1-dioxido-2,3-dihydrobenzo[d]isothiazol-5-yl)amino)-1H-pyrazol-5-yl)cyclopentyl isopropylcarbamate] | 7.62 | 6.02
CC(NC(=O)O[C@H]1CC[C@@H](c2cc(Nc3ccc4c(c3)CS(=O)(=O)N4C)n[nH]2)C1)C1COC1 (relative stereo) [Example 235, cis-3-(3-((1-methyl-2,2-dioxido-1,3-dihydrobenzo[c]isothiazol-5-yl)amino)-1H-pyrazol-5-yl)cyclopentyl(1-(oxetan-3-yl)ethyl)carbamate] | 7.92 | 6.63
CC[C@H](C)NC(=O)O[C@H]1CC[C@@H](c2cc(Nc3ccc4c(c3F)CN(C)S4(=O)=O)n[nH]2)C1 (single isomer, unassigned) [Example 123b] | 8.59 | 6.66
CN1c2ccc(Nc3cc([C@@H]4CC[C@H](OC(=O)NC5(C)CCOC5)C4)[nH]n3)c(F)c2CS1(=O)=O (single isomer, unassigned) [Example 349a, cis-3-(3-((4-fluoro-1-methyl-2,2-dioxido-1,3-dihydrobenzo[c]isothiazol-5-yl)amino)-1H-pyrazol-5-yl)cyclopentyl(3-methyltetrahydrofuran-3-yl)carbamate] | 8.74 | 6.88
CC(C)NC(=O)O[C@H]1CC[C@@H](c2cc(Nc3ccc4c(c3Cl)CNS4(=O)=O)n[nH]2)C1 (single isomer, unassigned) [Example 38a, cis-3-(3-((4-chloro-1,1-dioxido-2,3-dihydrobenzo[d]isothiazol-5-yl)amino)-1H-pyrazol-5-yl)cyclopentyl isopropylcarbamate] | 7.42 | 5.83
[2H]C([2H])([2H])N1c2ccc(Nc3cc([C@@H]4CC[C@H](OC(=O)NCCC)C4)[nH]n3)c(F)c2CS1(=O)=O (single isomer, unassigned) [Example 268a, cis-3-(3-((4-fluoro-1-(methyl-d3)-2,2-dioxido-1,3-dihydrobenzo[c]isothiazol-5-yl)amino)-1H-pyrazol-5-yl)cyclopentyl propylcarbamate] | 7.85 | 6.55
CCN1Cc2c(ccc(Nc3cc([C@@H]4CC[C@H](OC(=O)NC(C)C)C4)[nH]n3)c2F)S1(=O)=O (relative stereo) [Example 60, cis-3-(3-((2-ethyl-4-fluoro-1,1-dioxido-2,3-dihydrobenzo[d]isothiazol-5-yl)amino)-1H-pyrazol-5-yl)cyclopentyl isopropylcarbamate] | 8.04 | 6.30
CCCNC(=O)O[C@H]1CC[C@@H](c2cc(Nc3ccc4c(c3F)CS(=O)(=O)N4C3COC3)n[nH]2)C1 (racemic) [Example 260, cis-3-(3-((4-fluoro-1-(oxetan-3-yl)-2,2-dioxido-1,3-dihydrobenzo[c]isothiazol-5-yl)amino)-1H-pyrazol-5-yl)cyclopentyl propylcarbamate] | 8.49 | 6.96
CC(C)NC(=O)O[C@H]1CC[C@@H](c2cc(Nc3ccc4c(c3)CS(=O)(=O)N4CC(F)(F)F)n[nH]2)C1 (relative stereo) [Example 205, cis-3-(3-((2,2-dioxido-1-(2,2,2-trifluoroethyl)-1,3-dihydrobenzo[c]isothiazol-5-yl)amino)-1H-pyrazol-5-yl)cyclopentyl isopropylcarbamate] | 8.12 | 7.39
